A short description of series [1]: Inhibition of Hedgehog-signalling dependent purmorphamine induced osteoblast differentiation in mouse C3H 10T1/2 cells assessed as reduction in ALP expression incubated for 96 hrs by CDP-Star luminogenic substrate based assay. It counts as functional, cell-based. The following applies: C3H 10T1/2, 96 h.
A short description of series [2]: Inhibition of Hedgehog-signalling dependent purmorphamine induced osteoblast differentiation in mouse C3H 10T1/2 cells assessed as residual activity by measuring ALP expression at 10 uM incubated for 96 hrs by CDP-Star luminogenic substrate based assay relative to control. It counts as functional.
The target of series [3] is T1, Aryl hydrocarbon receptor (Mus musculus, UniProt P30561).
T1 sequence (P30561 whole entry): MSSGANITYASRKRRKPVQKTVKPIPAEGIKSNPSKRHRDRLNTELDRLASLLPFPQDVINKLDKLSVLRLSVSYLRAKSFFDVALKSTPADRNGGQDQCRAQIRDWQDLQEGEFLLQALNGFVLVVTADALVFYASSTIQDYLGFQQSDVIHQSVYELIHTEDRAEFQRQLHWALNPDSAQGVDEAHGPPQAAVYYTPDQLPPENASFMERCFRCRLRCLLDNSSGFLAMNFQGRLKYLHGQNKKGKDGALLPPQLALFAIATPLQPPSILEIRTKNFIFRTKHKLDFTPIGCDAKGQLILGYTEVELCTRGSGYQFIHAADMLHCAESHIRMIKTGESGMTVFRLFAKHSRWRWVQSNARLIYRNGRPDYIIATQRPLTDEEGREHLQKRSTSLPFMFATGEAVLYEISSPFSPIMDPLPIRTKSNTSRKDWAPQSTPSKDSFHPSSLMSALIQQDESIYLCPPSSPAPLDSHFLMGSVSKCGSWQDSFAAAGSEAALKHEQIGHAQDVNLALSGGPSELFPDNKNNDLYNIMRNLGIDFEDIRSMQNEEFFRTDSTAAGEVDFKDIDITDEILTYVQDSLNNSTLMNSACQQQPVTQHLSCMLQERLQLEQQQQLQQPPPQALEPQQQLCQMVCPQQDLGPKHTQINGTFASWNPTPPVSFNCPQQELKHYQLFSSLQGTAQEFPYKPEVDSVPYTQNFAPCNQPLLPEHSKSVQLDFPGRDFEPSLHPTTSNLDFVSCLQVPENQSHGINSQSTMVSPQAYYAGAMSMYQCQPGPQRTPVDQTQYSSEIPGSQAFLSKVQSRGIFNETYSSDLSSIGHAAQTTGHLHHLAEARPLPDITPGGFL
In words: Activation of AhR in purmorphamine-treated mouse C3H 10T1/2 cells assessed as upregulation of Cyp1B1 mRNA levels measured after 96 hrs by RT-qPCR analysis. It counts as cell-based. The following applies: c3h 10t1/2, 96 h, DDE = dose-dependent effect, dose 0.001-1 nM.

Series [4] addresses T1, Aryl hydrocarbon receptor. In words: Activation of AhR in purmorphamine-treated mouse C3H 10T1/2 cells assessed as translocation of AhR from cytoplasm to nucleus at 1 nM incubated for 24 hrs by immunostaining based analysis. The series is classed as cell-based. To be noted: c3h 10t1/2, 24 h, 0.001 µM.

Regarding `O=C1c2ccc(Br)cc2C[C@H]2c3ccccc3CCN12`, the IC50 in series [1] is 4200 pM. Besides, the Activity in series [2] is on record as 44.2%.

With `O=C1c2ccc(Cl)c(F)c2C[C@H]2c3ccccc3CCN12`, the Activity in series [2] came to 67.2%.

Turning to `Cc1ccc2c(c1)C[C@H]1c3ccccc3CCN1C2=O`, the Activity in series [2] is reported as 93.2%.

Consider `COc1ccc2c(c1)C[C@H]1c3ccccc3CCN1C2=O`, for which the Activity in series [2] is 114%.

`O=C1c2cc(Cl)cc(Cl)c2C[C@H]2c3ccccc3CCN12`: in series [2], the Activity is given as 53.2%.

Turning to `O=C1c2ccc(Cl)cc2C[C@H]2c3ccccc3CCN12`, the IC50 in series [1] came to 1200 pM. Further, the Activity in series [2] was 30.4%.

For `O=C1c2ccc(I)cc2C[C@H]2c3ccccc3CCN12`, the Activity in series [2] amounted to 57.8%.

As for `CC(C)c1ccc2c(c1)C[C@H]1c3ccccc3CCN1C2=O`, the Activity in series [2] is recorded as 90.1%.

For the compound `O=C1c2ccc(C(F)(F)F)cc2C[C@H]2c3ccccc3CCN12`, the IC50 in series [1] turned out to be 700 pM. In addition, the Activity in series [2] turned out to be 33.1%.

For `O=C1c2ccc(Cl)c(Cl)c2C[C@H]2c3ccccc3CCN12`, the IC50 in series [1] turned out to be 1100 pM. Also, in series [2], the Activity worked out at 36%.

As for `O=C1c2cc(I)c(Cl)cc2C[C@H]2c3ccccc3CCN12`, in series [1], the IC50 worked out at 4 pM. For the same compound, the Activity in series [2] amounted to 30.7%.

Take `O=C1c2ccc(F)cc2C[C@H]2c3ccccc3CCN12`: the Activity in series [2] was determined as 61.2%.

Consider `O=C1c2ccccc2C[C@H]2c3ccccc3CCN12`, for which the Activity in series [2] amounted to 100%.

For `O=C1c2cc(Br)c(Cl)cc2C[C@H]2c3ccccc3CCN12`, the Activity result in series [3] was “Dde”; in series [4], “Active”.

Turning to `O=C1c2ccccc2C[C@H]2c3ccccc3CCCN12`, the Activity in series [2] came out at 134%.

In the case of `COc1cc2c(cc1OC)C(=O)N1CCc3cc(OC)c(OC)cc3[C@@H]1C2`, in series [2], the Activity came out at 55.2%.

For the compound `O=C1c2cccc(Cl)c2C[C@H]2c3ccccc3CCN12`, the Activity in series [2] is on record as 53%.

As to `COc1cc2c(cc1F)CCN1C(=O)c3ccccc3C[C@@H]21`, the Activity in series [2] is 127%.

In the case of `O=C1c2ccc(Cl)cc2C[C@@H]2c3ccccc3CCN12`, the IC50 in series [1] is 850000 pM. The Activity in series [2] came out at 27.4%.

Consider `COc1cc2c(cc1OC)[C@@H]1Cc3ccccc3C(=O)N1CC2`, for which the Activity in series [2] is 96.5%.

As for `O=C1c2cc(Br)c(Cl)c(Br)c2C[C@H]2c3ccccc3CCN12`, in series [1], the IC50 came to 360 pM. In addition, in series [2], the Activity worked out at 27.9%.

Take `COc1cc2c(cc1Cl)C[C@H]1c3ccccc3CCN1C2=O`: the IC50 in series [1] turned out to be 38 pM. Further, in series [2], the Activity was 13.4%.

With `O=C1c2ccccc2C[C@H]2c3ccccc3CN12`, the Activity in series [2] was 29.2%.

For `O=C1c2ccccc2C[C@H]2c3ccc(Cl)cc3CCN12`, in series [2], the Activity stood at 87%.

The values are drawn from ChEMBL document CHEMBL5150067 (J Med Chem, 2022).
